pIC50: −log10 of the molar value. Where a SMILES comes first, the peptide text is derived from it. The star is where a group is joined. Phenanthrenequinone2carbonyl = O=C1C(=O)c2cc(C(=O)*)ccc2-c2ccccc21; 3Phenanthroyl(9,10-dioxo) = O=C1C(=O)c2ccc(C(=O)*)cc2-c2ccccc21; X1 = O=C1C(=O)c2cc(N*)ccc2-c2ccccc21
Assays:
[1] = system: T-cell; assay: Cytotoxicity measured against human T-cells; assay type: functional
[2] = system: T-cell; assay: In vitro inhibition of human T-cell proliferation; assay type: functional, cell-based

Structure (SMILES)	CC50 [1] [µM]	pIC50 [2]
O=C1C(=O)c2ncccc2-c2ccccc21	7	6.40
O=C1C=C(c2cc(Cl)cc(Cl)c2)c2ccccc2C1=O	5.5	6.52
O=C1C=C(c2c(-c3ccccc3)[nH]c3ccccc23)c2ccccc2C1=O	16	5.66
CCOc1ccccc1-c1ccc2c(c1)C(=O)C(=O)c1ccccc1-2	> 30	6.15
O=C1C(=O)c2cc([N+](=O)[O-])ccc2-c2ccc([N+](=O)[O-])cc21	8	6.30
O=C(O)c1ccc2c(c1)C(=O)C(=O)c1ccccc1-2	> 30	< 4.52
O=C1C=C(c2ccccc2Cl)c2ccccc2C1=O	12.4	6.52
O=C(O)CNC(=O)c1ccc2c(c1)-c1ccccc1C(=O)C2=O	> 30	5.19
O=C(O)c1ccc2c(c1)-c1ccccc1C(=O)C2=O	–	< 4.52
O=C1C(=O)c2cc([N+](=O)[O-])ccc2-c2ccccc21	10	5.80
Nc1cccc2c1-c1ccccc1C(=O)C2=O	9	6.70
Cn1cc(C2=CC(=O)C(=O)c3ccccc32)c2ccccc21	> 30	5.82
O=C1C(=O)c2cccc([N+](=O)[O-])c2-c2ccccc21	10	–
COC(=O)CCCC(=O)Nc1ccc2c(c1)-c1ccccc1C(=O)C2=O	9	5.80
O=C1C=C(c2cccc([N+](=O)[O-])c2)c2ccccc2C1=O	4	6.40
CCOC1=CC(=O)C(=O)c2ccccc21	> 30	< 4.52
O=C1C(=O)c2ccc([N+](=O)[O-])cc2-c2ccccc21	2.8	6.70
C=CCOC1=CC(=O)C(=O)c2ccccc21	> 30	< 4.52
O=C1C=Cc2ccc(O)cc2C1=O	> 30	< 4.52
CCCC(=O)Nc1ccc2c(c1)C(=O)C(=O)c1ccccc1-2	8.2	5.96

Structure (SMILES)	CC50 [1] [µM]	pIC50 [2]
O=C1C(=O)c2ccc(NC(=O)c3ccccc3C(F)(F)F)cc2-c2ccccc21	14	–
O=C1C=C(c2ccccc2)c2ccccc2C1=O	12	6.70
O=C1C=Cc2cc(C(=O)c3ccccc3)ccc2C1=O	> 30	4.96
O=C1C(=O)c2cc(-c3ccsc3)ccc2-c2ccccc21	7.3	5.77
COC(=O)c1ccc2c(c1)C=CC(=O)C2=O	> 30	5.15
COC(=O)c1cccc2c1C=CC(=O)C2=O	> 30	–
COC(=O)CCC(=O)Nc1ccc2c(c1)-c1ccccc1C(=O)C2=O	18	–
Nc1ccc2c(c1)-c1ccccc1C(=O)C2=O	17	–
O=C1C(=O)c2cc(-c3ccc4c(c3)OCO4)ccc2-c2ccccc21	5	5.77
Nc1cccc2c1C(=O)C(=O)c1ccccc1-2	9.6	5.11
O=C1C=C(Br)c2ccccc2C1=O	> 30	4.66
O=C1C(=O)c2ccsc2-c2ccccc21	3.5	–
Cc1ccc(S(=O)(=O)Nc2ccc3c(c2)C(=O)C(=O)c2ccccc2-3)cc1	> 30	5.19
Cc1ccc(S(=O)(=O)N(c2ccc3c(c2)C(=O)C(=O)c2ccccc2-3)S(=O)(=O)c2ccc(C)cc2)cc1	5.3	–
O=C1C=C(c2ccc(Br)cc2)c2ccccc2C1=O	3	6.70
CC(=O)N[C@@H](C)C(=O)N[C@H](C(=O)N[C@@H](CCC(=O)O)C(=O)NCC(=O)N[C@@H](CCC(N)=O)C(=O)N[C@@H](CC(=O)Nc1ccc2c(c1)C(=O)C(=O)c1ccccc1-2)C(=O)O)[C@@H](C)O (Ac-ATEGQD(X1)-OH)	–	4.67
CC(=O)N[C@@H](Cc1ccccc1)C(=O)N[C@H](C(=O)N[C@@H](C)C(=O)N[C@H](C(=O)N[C@@H](CCC(=O)O)C(=O)NCC(=O)N[C@@H](CCC(N)=O)C(=O)N[C@@H](CC(=O)Nc1ccc2c(c1)C(=O)C(=O)c1ccccc1-2)C(=O)O)[C@@H](C)O)[C@@H](C)O (Ac-FTATEGQD(X1)-OH)	–	< 4.52
CC(=O)N[C@H](C(=O)N[C@@H](C)C(=O)N[C@H](C(=O)N[C@@H](CCC(=O)O)C(=O)NCC(=O)N[C@@H](CCC(N)=O)C(=O)N[C@@H](CC(=O)Nc1ccc2c(c1)C(=O)C(=O)c1ccccc1-2)C(=O)O)[C@@H](C)O)[C@@H](C)O (Ac-TATEGQD(X1)-OH)	–	4.64
O=C(O)CC[C@H](NC(=O)c1ccc2c(c1)C(=O)C(=O)c1ccccc1-2)C(=O)N[C@@H](CCC(=O)O)C(=O)N1CCC[C@H]1C(=O)N[C@@H](CCC(=O)O)C(=O)NCC(=O)O (Phenanthrenequinone2carbonyl-EEPEG-OH)	> 30	4.85
N=C(N)NCCC[C@H](NC(=O)[C@@H]1CCCN1C(=O)[C@H](CCC(=O)O)NC(=O)[C@H](CCC(=O)O)NC(=O)c1ccc2c(c1)C(=O)C(=O)c1ccccc1-2)C(=O)NCC(=O)O (Phenanthrenequinone2carbonyl-EEPRG-OH)	> 30	4.80

Structure (SMILES)	CC50 [1] [µM]	pIC50 [2]
O=C(O)CC[C@H](NC(=O)c1ccc2c(c1)C(=O)C(=O)c1ccccc1-2)C(=O)NCC(=O)N1CCC[C@H]1C(=O)N[C@@H](CCC(=O)O)C(=O)NCC(=O)O (Phenanthrenequinone2carbonyl-EGPEG-OH)	> 30	5.06
N=C(N)NCCC[C@H](NC(=O)[C@@H]1CCCN1C(=O)CNC(=O)[C@H](CCC(=O)O)NC(=O)c1ccc2c(c1)C(=O)C(=O)c1ccccc1-2)C(=O)NCC(=O)O (Phenanthrenequinone2carbonyl-EGPRG-OH)	> 30	4.64
N=C(N)NCCC[C@H](NC(=O)[C@H](CCC(=O)O)NC(=O)c1ccc2c(c1)C(=O)C(=O)c1ccccc1-2)C(=O)N1CCC[C@H]1C(=O)N[C@@H](CCC(=O)O)C(=O)NCC(=O)O (Phenanthrenequinone2carbonyl-ERPEG-OH)	> 30	5.52
N=C(N)NCCC[C@H](NC(=O)[C@@H]1CCCN1C(=O)[C@H](CCCNC(=N)N)NC(=O)[C@H](CCC(=O)O)NC(=O)c1ccc2c(c1)C(=O)C(=O)c1ccccc1-2)C(=O)NCC(=O)O (Phenanthrenequinone2carbonyl-ERPRG-OH)	> 30	4.72
O=C(O)CC[C@H](NC(=O)[C@@H]1CCCN1C(=O)[C@H](CCC(=O)O)NC(=O)CNC(=O)c1ccc2c(c1)C(=O)C(=O)c1ccccc1-2)C(=O)NCC(=O)O (Phenanthrenequinone2carbonyl-GEPEG-OH)	> 30	5.05
N=C(N)NCCC[C@H](NC(=O)[C@@H]1CCCN1C(=O)[C@H](CCC(=O)O)NC(=O)CNC(=O)c1ccc2c(c1)C(=O)C(=O)c1ccccc1-2)C(=O)NCC(=O)O (Phenanthrenequinone2carbonyl-GEPRG-OH)	> 30	4.70
O=C(O)CC[C@H](NC(=O)[C@@H]1CCCN1C(=O)CNC(=O)CNC(=O)c1ccc2c(c1)C(=O)C(=O)c1ccccc1-2)C(=O)NCC(=O)O (Phenanthrenequinone2carbonyl-GGPEG-OH)	> 30	4.71
N=C(N)NCCC[C@H](NC(=O)[C@@H]1CCCN1C(=O)CNC(=O)CNC(=O)c1ccc2c(c1)C(=O)C(=O)c1ccccc1-2)C(=O)NCC(=O)O (Phenanthrenequinone2carbonyl-GGPRG-OH)	> 30	4.80
N=C(N)NCCC[C@H](NC(=O)CNC(=O)c1ccc2c(c1)C(=O)C(=O)c1ccccc1-2)C(=O)N1CCC[C@H]1C(=O)N[C@@H](CCC(=O)O)C(=O)NCC(=O)O (Phenanthrenequinone2carbonyl-GRPEG-OH)	> 30	5.26
N=C(N)NCCC[C@H](NC(=O)[C@@H]1CCCN1C(=O)[C@H](CCCNC(=N)N)NC(=O)CNC(=O)c1ccc2c(c1)C(=O)C(=O)c1ccccc1-2)C(=O)NCC(=O)O (Phenanthrenequinone2carbonyl-GRPRG-OH)	> 30	< 4.52
N=C(N)NCCC[C@H](NC(=O)c1ccc2c(c1)C(=O)C(=O)c1ccccc1-2)C(=O)N[C@@H](CCC(=O)O)C(=O)N1CCC[C@H]1C(=O)N[C@@H](CCC(=O)O)C(=O)NCC(=O)O (Phenanthrenequinone2carbonyl-REPEG-OH)	> 30	5.30
N=C(N)NCCC[C@H](NC(=O)c1ccc2c(c1)C(=O)C(=O)c1ccccc1-2)C(=O)NCC(=O)N1CCC[C@H]1C(=O)N[C@@H](CCC(=O)O)C(=O)NCC(=O)O (Phenanthrenequinone2carbonyl-RGPEG-OH)	> 30	5.48
N=C(N)NCCC[C@H](NC(=O)c1ccc2c(c1)C(=O)C(=O)c1ccccc1-2)C(=O)NCC(=O)N1CCC[C@H]1C(=O)N[C@@H](CCCNC(=N)N)C(=O)NCC(=O)O (Phenanthrenequinone2carbonyl-RGPRG-OH)	> 30	4.85
N=C(N)NCCC[C@H](NC(=O)c1ccc2c(c1)C(=O)C(=O)c1ccccc1-2)C(=O)N[C@@H](CCCNC(=N)N)C(=O)N1CCC[C@H]1C(=O)N[C@@H](CCC(=O)O)C(=O)NCC(=O)O (Phenanthrenequinone2carbonyl-RRPEG-OH)	> 30	4.96
N=C(N)NCCC[C@H](NC(=O)c1ccc2c(c1)C(=O)C(=O)c1ccccc1-2)C(=O)N[C@@H](CCCNC(=N)N)C(=O)N1CCC[C@H]1C(=O)N[C@@H](CCCNC(=N)N)C(=O)NCC(=O)O (Phenanthrenequinone2carbonyl-RRPRG-OH)	> 30	4.68
NC(=O)CC[C@H](NC(=O)[C@H](CCC(=O)O)NC(=O)c1ccc2c(c1)-c1ccccc1C(=O)C2=O)C(=O)NCC(=O)N[C@@H](CCC(N)=O)C(=O)N1CCC[C@H]1C(=O)O ({3Phenanthroyl(9,10-dioxo)}-EQGQP-OH)	> 30	5.15
NC(=O)CC[C@H](NC(=O)[C@@H]1CCCN1C(=O)[C@H](CCC(N)=O)NC(=O)[C@H](CCC(=O)O)NC(=O)c1ccc2c(c1)-c1ccccc1C(=O)C2=O)C(=O)N1CCC[C@H]1C(=O)O ({3Phenanthroyl(9,10-dioxo)}-EQPQP-OH)	> 30	< 4.52
NC(=O)CC[C@H](NC(=O)CNC(=O)[C@H](CCC(=O)O)NC(=O)CNC(=O)c1ccc2c(c1)-c1ccccc1C(=O)C2=O)C(=O)N1CCC[C@H]1C(=O)O ({3Phenanthroyl(9,10-dioxo)}-GEGQP-OH)	> 30	4.98

Source: ChEMBL document CHEMBL1134488, “Potent reversible inhibitors of the protein tyrosine phosphatase CD45” (J Med Chem, 2001)
